Experimental findings from patent US20090169497A1, “Treatment and Prevention of Skin Injury Due to Exposure to Ultraviolet Light” (priority 2007, published 2009) are described below.

Entries after “also recorded” stand apart in the source; their conditions may differ.

The subject of one series is SKH-1 mice. Nature of the series: Preliminary experiment assessing adverse effects of bucillamine alone in SKH-1 mice. The conditions noted are these: 20 mg/kg s.c., two doses 24 hours apart, no UVB. It is filed as in vivo. The protocol: In order to assess any adverse effects of bucillamine and UV exposure separately, a preliminary experiment was carried out in which SKH-1 mice were either treated with bucillamine (20 mg/kg s.c.) or UVB (230 mJ/cm^2) irradiation. Bucillamine can, for example, be administered intravenously, subcutaneously, intramuscularly or orally. Subcutaneous administration was used because it is a relatively easy route and the least likely to injure the animal during administration. The selection of bucillamine dose and UVB dose was based on previously published studies (13, 19, 21, 22). High dose of UVB (230 mJ/cm^2) was selected to investigate bucillamine effect on acute photodamage. Each group of animals received two doses of bucillamine or UVB, 24 hours apart. […] UVB exposure caused edema, erythema and thickening of the exposed skin.

Series [1] concerns p53. Nature of the series: Immunohistochemical analysis of nuclear p53 staining in epidermal keratinocytes. It is filed as in vivo, mice. The conditions noted are these: 24 hours after the last UVB exposure; 20 mg/kg s.c. pre-treatment. From the text: Animals and treatment for Example 2. Female SKH-1 hairless mice (6 weeks old) were purchased from Charles River Laboratories (Wilmington, Mass.). After their arrival, animals were housed at […] vivarium under specific pathogen-free conditions according to the National Institutes of Health Animal Care Guidelines under an Institutional protocol reviewed and approved by the Institutional Animal Care and Use Committee (IACUC). Animals were allowed to acclimatize for a week prior to the experiment. Animals were fed Purina chow diet and water ad libitum. Throughout the experimental protocol, the mice were maintained at standard conditions; temperature 24±2° C., relative humidity 50±10%, and 12 hour room light/12 hour dark cycle. Mice were divided into four groups. […] The remaining animals were divided into UV exposure alone (Group 2), UV+saline treatment (Group 3) and UV+bucillamine treatment (Group 4). Mice in groups 2-4 were exposed to two doses of 230 mJ/cm^2 UVB, 24 hours apart. Two hours prior to each UVB exposure, mice in groups 3 and 4 were treated with normal saline (Group 3) or bucillamine at a concentration of 20 mg/kg of body weight (Group 4) subcutaneously. […] All samples were coded and evaluated by at least two investigators in a blinded manner. […]

For a further series, the system named is PUMA. Nature of the series: UVB-induced activation of PUMA, downstream target of p53, in skin. It is filed as in vivo, mice. The conditions noted are these: 12 and 24 hours after the last UVB exposure; 20 mg/kg s.c. pre-treatment. From the text:
(§1) Animals and treatment for Example 2. Female SKH-1 hairless mice (6 weeks old) were purchased from Charles River Laboratories (Wilmington, Mass.). After their arrival, animals were housed at UCDHSC vivarium under specific pathogen-free conditions according to the National Institutes of Health Animal Care Guidelines under an Institutional protocol reviewed and approved by the Institutional Animal Care and Use Committee (IACUC). Animals were allowed to acclimatize for a week prior to the experiment. Animals were fed Purina chow diet and water ad libitum. Throughout the experimental protocol, the mice were maintained at standard conditions; temperature 24±2° C., relative humidity 50±10%, and 12 hour room light/12 hour dark cycle. Mice were divided into four groups. […] The remaining animals were divided into UV exposure alone (Group 2), UV+saline treatment (Group 3) and UV+bucillamine treatment (Group 4). Mice in groups 2-4 were exposed to two doses of 230 mJ/cm^2 UVB, 24 hours apart. Two hours prior to each UVB exposure, mice in groups 3 and 4 were treated with normal saline (Group 3) or bucillamine at a concentration of 20 mg/kg of body weight (Group 4) subcutaneously. […]
(§2) SDS-PAGE and immunoblot analysis. Proteins were analyzed by SDS-PAGE (12% gels) followed by transfer to a polyvinylidene difluoride membrane (0.4 μM) in 25 mM Tris, 192 mM glycine, and 20% methanol at 110 V for 1 hour. […]

The subject of series [2] is UV-exposed skin of SKH-1 hairless mice. Nature of the series: Histology of UVB-exposed dorsal skin after bucillamine pre-treatment. It counts as in vivo. From the text: Animals and treatment for Example 2. Female SKH-1 hairless mice (6 weeks old) were purchased from Charles River Laboratories (Wilmington, Mass.). After their arrival, animals were housed at UCDHSC vivarium under specific pathogen-free conditions according to the National Institutes of Health Animal Care Guidelines under an Institutional protocol reviewed and approved by the Institutional Animal Care and Use Committee (IACUC). Animals were allowed to acclimatize for a week prior to the experiment. Animals were fed Purina chow diet and water ad libitum. Throughout the experimental protocol, the mice were maintained at standard conditions; temperature 24±2° C., relative humidity 50±10%, and 12 hour room light/12 hour dark cycle. Mice were divided into four groups. […] The remaining animals were divided into UV exposure alone (Group 2), UV+saline treatment (Group 3) and UV+bucillamine treatment (Group 4). Mice in groups 2-4 were exposed to two doses of 230 mJ/cm^2 UVB, 24 hours apart. Two hours prior to each UVB exposure, mice in groups 3 and 4 were treated with normal saline (Group 3) or bucillamine at a concentration of 20 mg/kg of body weight (Group 4) subcutaneously. Animals were sacrificed after the last UVB exposure at various time points, and the dorsal skin was surgically removed and used for further analysis.
UVB Source. We employed four FS-40-T-12-UVB sunlamps with UVB spectra 305 Dosimeter (Daavlin, Bryan, Ohio), which emitted about 80% radiation in the range of 280-340 nm with a peak emission at 314 nm as monitored with a SEL 240 photodetector, 103 filter and 1008 diffuser attached to an IL1400A NIST Traceable Radiometer/Photometer from International Light (Newburyport, Mass.). The UVB irradiation doses were also calibrated using an IL1400A radiometer.
Histopathology. Skin samples were fixed in 10% formalin and embedded in paraffin. Vertical sections (4 μm thickness) were cut and mounted on a glass slide, and stained with hematoxylin and eosin followed by microscopic evaluation of the slides. SKH-1 hairless mice were unexposed or irradiated with UVB (230 mJ/cm^2) twice, 24 hours apart. Mice irradiated with UVB were untreated or pre-treated with bucillamine or saline. Skin samples were collected at 6 hours and 24 hours after the last UVB exposure, and processed for histopathological analysis.

In series [3] the test system is p53. Nature of the series: UVB-mediated total p53 induction in skin lysates (immunoblot). It counts as in vivo, mice. The conditions noted are these: 20 mg/kg s.c. pre-treatment.
Source text: as §1, §2
A general note: In western blotting, separated proteins are transferred to a membrane and probed.

In a further series the test system is p53 (Ser15, Ser20). The series is described as follows: UVB-induced phosphorylation of p53 at Ser15 and Ser20 in skin (immunoblot). It counts as in vivo, mice. The conditions noted are these: 20 mg/kg s.c. pre-treatment.
Source text: as §1, §2

In series [4] the test system is ubiquitin proteasomal pathway (UPP) in 8B20 mouse melanoma cells. Nature of the series: Ubiquitin immunoblot controls for UPP inhibition in 8B20 cells. It is filed as cell-based. The conditions noted are these: 50 μM, negative control. The protocol:
As a positive control of UPP inhibition, we used 8B20 mouse melanoma cells treated with UPP inhibitors MG132 (10 μM) and Lactacystin (10 μM), and as a negative control we used 8B20 cells treated with etoposide (50 μM), a DNA damaging agent.
SDS-PAGE and immunoblot analysis. Proteins were analyzed by SDS-PAGE (12% gels) followed by transfer to a polyvinylidene difluoride membrane (0.4 μM) in 25 mM Tris, 192 mM glycine, and 20% methanol at 110 V for 1 hour. Membranes were blocked overnight in 10 mM Tris-HCl, pH 8.0, 125 mM NaCl, and 0.2% (v/v) Tween 20 containing 5% (w/v) nonfat dry milk (TBST-M5). Immunoblot analysis of the total protein bands were visualized using enhanced chemiluminescence as described by the manufacturer (Pierce Biotechnology, Inc., Rockford, Ill.). Immunoblots were subsequently stripped of antibodies by incubating for 15-20 minutes at 37° C. with Restore Western Stripping Buffer (Pierce Biotechnology, Inc., Rockford, Ill.) and re-probed with β-actin antibody to confirm protein loading. Densitometric analysis of the membranes was performed using GelDoc 200 (Bio-Rad Laboratories, Hercules, Calif.).

[5] abbreviates: 12 and 24 hours after the last UVB exposure.
Where [6] appears, read: 6 hours after the last UVB exposure.

As for `CC(C)(S)C(=O)N[C@@H](CS)C(=O)O` [bucillamine, N-(2-mercapto-2-methylpropionyl)-L-cysteine], the adverse effects result in the series with SKH-1 mice was “no adverse effects”. Also, the “nuclear p53 staining in epidermal keratinocytes” value with p53 [1] is recorded as “diminished this effect”. In the series on PUMA, the “activation of PUMA” value is on record as “attenuated the activation of PUMA”. Further, in series [2] (20 mg/kg s.c. 2 h before each of two 230 mJ/cm^2 UVB exposures), the “UVB-induced erythema of dorsal skin” value is “attenuated the erythema”. The UVB-induced inflammation result in series [2] (12 and 24 hours after the last UVB exposure, pre-treatment) was “attenuated the inflammation”. Moreover, the “epidermal necrosis (histology)” value in series [2] (6 hours after the last UVB exposure, 20 mg/kg s.c. pre-treatment) is reported as “epidermal necrosis was less prominent”. The “UV-effects on inflammation (dermal edema, leukocyte infiltration, dilatation of blood vessels)” value in series [2] (24 hours after the last UVB exposure, 20 mg/kg s.c. pre-treatment) is given as “attenuated the UV-effects on inflammation”. Besides, the p53 level entry in the series on p53 [3] (setting [5]) is given as “further decreased”. The “induction of total p53” value in the series with p53 [3] (setting [6]) was “attenuated this effect”. The “phosphorylation of p53 at Ser15 and Ser20” value is “further diminished the phosphorylation; also recorded: quick decrease” in the series on p53 (Ser15, Ser20) (setting [5]) and “attenuated this effect” with p53 (Ser15, Ser20) (setting [6]).

On to `COc1cc([C@@H]2c3cc4c(cc3[C@@H](O[C@@H]3O[C@@H]5CO[C@@H](C)O[C@H]5[C@H](O)[C@H]3O)[C@H]3COC(=O)[C@H]23)OCO4)cc(OC)c1O` [etoposide], for which the “ubiquitin reactive high molecular weight bands (polyubiquitinated species)” value in series [4] is “no polyubiquitinated species”.
